The values that follow come from patent US6548494B1, “Tricyclic inhibitors of poly(ADP-ribose) polymerases” (Agouron Pharmaceuticals, Inc., priority 1999, dated 2003).

Where “and” joins values, the source holds several entries; their conditions need not be identical. Equal entries are not always repeated.

The assay deals with purified PARP protein (Homo sapiens, UniProt P09874). Nature of the assay: PARP enzyme inhibition assay. The assay is classed as biochemical. Particulars: 20 nM purified PARP (5 nM for tight-binding inhibitors), 500 μM NAD+, 25° C.; several values in one cell = repeat determinations; read-out: Inhibition Constant Ki.
purified PARP protein, sequence (P09874 whole entry): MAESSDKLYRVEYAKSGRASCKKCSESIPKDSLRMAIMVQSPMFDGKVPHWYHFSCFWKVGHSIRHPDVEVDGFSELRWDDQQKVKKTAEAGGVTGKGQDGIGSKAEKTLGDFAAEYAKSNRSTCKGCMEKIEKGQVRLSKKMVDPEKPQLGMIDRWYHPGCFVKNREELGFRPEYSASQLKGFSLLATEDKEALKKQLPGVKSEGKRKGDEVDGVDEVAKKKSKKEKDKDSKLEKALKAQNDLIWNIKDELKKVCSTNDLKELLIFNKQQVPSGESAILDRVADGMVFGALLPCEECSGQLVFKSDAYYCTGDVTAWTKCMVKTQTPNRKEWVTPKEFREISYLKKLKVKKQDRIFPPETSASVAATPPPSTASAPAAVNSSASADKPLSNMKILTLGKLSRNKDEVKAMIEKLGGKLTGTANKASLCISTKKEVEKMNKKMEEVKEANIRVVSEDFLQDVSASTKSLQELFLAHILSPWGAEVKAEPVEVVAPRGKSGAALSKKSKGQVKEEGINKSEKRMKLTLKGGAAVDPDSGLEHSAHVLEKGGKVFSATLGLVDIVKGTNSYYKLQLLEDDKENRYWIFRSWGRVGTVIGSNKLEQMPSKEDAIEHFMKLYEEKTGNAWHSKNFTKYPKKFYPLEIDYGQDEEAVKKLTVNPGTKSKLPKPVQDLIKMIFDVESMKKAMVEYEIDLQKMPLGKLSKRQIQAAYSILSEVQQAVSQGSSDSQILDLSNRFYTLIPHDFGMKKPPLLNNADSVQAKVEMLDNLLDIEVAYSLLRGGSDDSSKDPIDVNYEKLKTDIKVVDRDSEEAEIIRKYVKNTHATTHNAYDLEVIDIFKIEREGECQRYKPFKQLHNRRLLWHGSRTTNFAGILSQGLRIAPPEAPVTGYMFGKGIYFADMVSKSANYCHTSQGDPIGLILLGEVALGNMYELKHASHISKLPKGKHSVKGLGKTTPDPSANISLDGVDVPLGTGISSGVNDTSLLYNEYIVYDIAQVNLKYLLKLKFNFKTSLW
`Cc1ccc(CNCc2ccc(-c3nc4cccc5c4n3CCNC5=O)cc2)o1` [Example 195, 1-(4-{[(5-Methyl-furan-2-ylmethyl)-amino]-methyl}-phenyl)-8,9-dihydro-7H-2,7,9a-triaza-benzo[cd]azulen-6-one]: the Ki is 4.7 nM and 5.9 nM.

In the case of `O=C1NCCn2c(-c3ccc(CNCc4ccccc4)cc3)nc3cccc1c32` [Example 196, 1-[4-(Benzylamino-methyl)-phenyl]-8,9-dihydro-7H-2,7,9a-triaza-benzo[cd]azulen-6-one], the Ki came out at 3.9 nM.

As for `O=C1NCCn2c(-c3ccc(CN4CCc5ccccc5C4)cc3)nc3cccc1c32` [Example 198, 1-[4-(3,4-Dihydro-1H-isoquinolin-2-ylmethyl)-phenyl]-8,9-dihydro-7H-2,7,9a-triaza-benzo[cd]azulen-6-one], the Ki stood at 7.9 nM.

Take `CN(Cc1ccccc1)Cc1ccc(-c2nc3cccc4c3n2CCNC4=O)cc1` [Example 199, 1-[4-(Benzyl-methyl-amino-methyl)-phenyl]-8,9-dihydro-7H-2,7,9a-triaza-benzo[cd]azulen-6-one]: the Ki was 6.8 nM.

Turning to `CC(CNCc1ccc(-c2nc3cccc4c3n2CCNC4=O)cc1)c1ccccc1` (stereo not drawn) [Example 200, 1-{4-[(2-Phenyl-propylamino)-methyl]-phenyl}-8,9-dihydro-7H-2,7,9a-triaza-benzo[cd]azulen-6-one], the Ki worked out at 6 nM.

`O=C1NCCn2c(-c3ccc(CNCCCc4ccccc4)cc3)nc3cccc1c32` [Example 201, 1-{4-[(3-Phenyl-propylamino)-methyl]-phenyl}-8,9-dihydro-7H-2,7,9a-triaza-benzo[cd]azulen-6-one]: the Ki is 5.8 nM.

For the compound `CN(CCc1ccccn1)Cc1ccc(-c2nc3cccc4c3n2CCNC4=O)cc1` [Example 202, 1-(4-{[Methyl-(2-pyridin-2-yl-ethyl)-amino]-methyl}-phenyl)-8,9-dihydro-7H-2,7,9a-triaza-benzo[cd]azulen-6-one], the Ki worked out at 3.2 nM.

Regarding `O=C1NCCn2c(-c3ccc(CNCCc4ccccn4)cc3)nc3cccc1c32` [Example 204, 1-{4-[(2-Pyridin-2-yl-ethylamino)-methyl]-phenyl}-8,9-dihydro-7H-2,7,9a-triaza-benzo[cd]azulen-6-one], the Ki was determined as 7.9 nM.

Take `CN(CCc1ccncc1)Cc1ccc(-c2nc3cccc4c3n2CCNC4=O)cc1` [Example 205, 1-(4-{[Methyl-(2-pyridin-4-yl-ethyl)-amino]-methyl}-phenyl)-8,9-dihydro-7H-2,7,9a-triaza-benzo[cd]azulen-6-one]: the Ki came to 4.7 nM.

Regarding `O=C1NCCn2c(-c3ccc(CNCCc4ccncc4)cc3)nc3cccc1c32` [Example 206, 1-{4-[(2-Pyridin-4-yl-ethylamino)-methyl]-phenyl}-8,9-dihydro-7H-2,7,9a-triaza-benzo[cd]azulen-6-one], the Ki is 6.4 nM.

In the case of `O=C1NCCn2c(-c3ccc(Cn4ccnc4)cc3)nc3cccc1c32` [Example 213, 1-(4-Imidazol-1-ylmethyl-phenyl)-8,9-dihydro-7H-2,7,9a-triaza-benzo[cd]azulen-6-one], the Ki is 7.4 nM.

On to `CC1CCC(C)N1Cc1ccc(-c2nc3cccc4c3n2CCNC4=O)cc1` (stereo not drawn) [Example 214, 1-[4-(2,5-Dimethyl-pyrrolidin-1-ylmethyl)-phenyl]-8,9-dihydro-7H-2,7,9a-triaza-benzo[cd]azulen-6-one], for which the Ki was 8.3 nM.

As to `CC1(C)CC2CC(C)(CN2Cc2ccc(-c3nc4cccc5c4n3CCNC5=O)cc2)C1` (stereo not drawn) [Example 215, 1-[4-(1,3,3-Trimethyl-6-aza-bicyclo[3.2.1]oct-6-ylmethyl)-phenyl]-8,9-dihydro-7H-2,7,9a-triaza-benzo[cd]azulen-6-one], the Ki is 11 nM.

Take `COC[C@@H]1CC[C@@H](COC)N1Cc1ccc(-c2nc3cccc4c3n2CCNC4=O)cc1` [Example 216, 1-[4-((2S,5S)-2,5-bis-Methoxymethyl-pyrrolidin-1-ylmethyl)-phenyl]-8,9-dihydro-7H-2,7,9a-triaza-benzo[cd]azulen-6-one]: the Ki was 27 nM.

In the case of `O=C1NCCn2c(-c3ccc(CN4CCC[C@@H]4C(=O)OCc4ccccc4)cc3)nc3cccc1c32` [Example 217, (R)-1-[4-(6-oxo-6,7,8,9-Tetrahydro-2,7,9a-triaza-benzo[cd]azulen-1-yl)-benzyl]-pyrrolidine-2-carboxylic Acid Benzyl Ester], the Ki amounted to 26 nM.

Regarding `CC(C)(C)OC(=O)[C@H]1CCCN1Cc1ccc(-c2nc3cccc4c3n2CCNC4=O)cc1` [Example 218, (R)-1-[4-(6-oxo-6,7,8,9-Tetrahydro-2,7,9a-triaza-benzo[cd]azulen-1-yl)-benzyl]-pyrrolidine-2-carboxylic Acid tert-Butyl Ester], the Ki worked out at 17 nM.

Turning to `CC(C)(C)OC(=O)NC1CCN(Cc2ccc(-c3nc4cccc5c4n3CCNC5=O)cc2)C1` (stereo not drawn) [Example 219, {1-[4-(6-oxo-6,7,8,9-Tetrahydro-2,7,9a-triaza-benzo[cd]azulen-1-yl)-benzyl]-pyrrolidin-3-yl}-carbamic Acid tert-Butyl Ester], the Ki was 11 nM.

For `O=C1NCCn2c(-c3ccc(Cn4cccc4)cc3)nc3cccc1c32` [Example 220, 1-(4-Pyrrol-1-ylmethyl-phenyl)-8,9-dihydro-7H-2,7,9a-triaza-benzo[cd]azulen-6-one], the Ki was determined as 4 nM.

As to `C[C@H]1Cn2c(-c3ccc(CN(C)C)cc3)nc3cccc(c32)C(=O)N1` [Example 221, (S)-1-(4-Dimethylaminomethyl-phenyl)-8-methyl-8,9-dihydro-7H-2,7,9a-triaza-benzo[cd]azulen-6-one], the inhibition constant (Ki) amounted to 5 nM.

For the compound `C[C@H]1Cn2c(-c3ccc(CO)cc3)nc3cccc(c32)C(=O)N1` [Example 221a, (S)-1-(4-Hydroxymethyl-phenyl)-8-methyl-8,9-dihydro-7H-2,7,9a-triaza-benzo[cd]azulen-6-one], the inhibitory constant (Ki) is 10 nM.

`CNCc1ccc(-c2nc3cccc4c3n2C[C@H](C)NC4=O)cc1` [Example 222, (S)-8-Methyl-1-(4-methylaminomethyl-phenyl)-8,9-dihydro-7H-2,7,9a-triaza-benzo[cd]azulen-6-one]: the Ki is 2 nM and 2.3 nM and 3.5 nM.

`N#Cc1ccc(-c2nc3cccc4c3n2CCNC4=O)cc1` [Example 227, 4-(6-oxo-6,7,8,9-Tetrahydro-2,7,9a-triaza-benzo[cd]azulen-1-y)-benzonitrile]: the Ki amounted to 2.2 nM.

Regarding `CC(C)CC(O)c1ccc(-c2nc3cccc4c3n2CCNC4=O)cc1` (stereo not drawn) [Example 228, 1-[4-(1-Hydroxy-3-methyl-butyl)-phenyl]-8,9-dihydro-7H-2,7,9a-triaza-benzo[cd]azulen-6-one], the Ki worked out at 4.6 nM.

Regarding `CC(C)CC(c1ccc(-c2nc3cccc4c3n2CCNC4=O)cc1)N1CC=CC1` (stereo not drawn) [Example 229, 1-{4-[1-(2,5-Dihydro-pyrrol-1-yl)-3-methyl-butyl]-phenyl}-8,9-dihydro-7H-2,7,9a-triaza-benzo[cd]azulen-6-one], the Ki is 5.3 nM and 6.8 nM.

Regarding `CC(C)CC(c1ccc(-c2nc3cccc4c3n2CCNC4=O)cc1)N1CCCC1` (stereo not drawn) [Example 230, 1-[4-(3-Methyl-1-pyrrolidin-1-yl-butyl)-phenyl]-8,9-dihydro-7H-2,7,9a-triaza-benzo[cd]azulen-6-one], the Ki turned out to be 5.3 nM.

With `CC(C)CC(c1ccc(-c2nc3cccc4c3n2CCNC4=O)cc1)N(C)C` (stereo not drawn) [Example 231, 1-[4-(Dimethylamino-methyl-butyl)-phenyl]-8,9-dihydro-7H-2,7,9a-triaza-benzo[cd]azulen-6-one], the Ki turned out to be 6.9 nM.

Regarding `C[C@H]1Cn2c(-c3ccc(Cn4cccc4)cc3)nc3cccc(c32)C(=O)N1` [Example 234, (S)-8-Methyl-1-(4-pyrrol-1-ylmethyl-phenyl)-8,9-dihydro-7H -2,7,9a-triaza-benzo[cd]azulen-6-one], the Ki was determined as 8.7 nM.

Consider `C[C@@H]1Cn2c(-c3ccc(Cl)cc3)nc3cccc(c32)C(=O)N1` [Example 236, (R)-1-(4-Chloro-phenyl)-8-methyl-8,9-dihydro-7H-2,7,9a-triaza-benzo[cd]azulen-6-one], for which the Ki turned out to be 113 nM.

With `O=C1N[C@@H](CO)Cn2c(-c3ccc(Cl)cc3)nc3cccc1c32` [Example 237, (R)-1-(4-Chloro-phenyl)-8-hydroxymethyl-8,9-dihydro-7H-2,7,9a-triaza-benzo[cd]azulen-6-one], the Ki was 5 nM and 6 nM.

For the compound `O=C1N[C@@H](COCc2ccccc2)Cn2c(-c3ccc(Cl)cc3)nc3cccc1c32` [Example 237b, (R)-8-Benzyloxymethyl-1-(4-chloro-phenyl)-8,9-dihydro-7H-2,7,9a-triaza-benzo[cd]azulen-6-one], the inhibitory constant (Ki) turned out to be 30 nM.

For `CN(C)Cc1ccc(-c2nc3cccc4c3n2C[C@H](CO)NC4=O)cc1` [Example 238, (R)-1-(4-Dimethylaminomethyl-phenyl)-8-hydroxymethyl-8,9-dihydro-7H-2,7,9a-triaza-benzo[cd]azulen-6-one], the Ki was determined as 7.3 nM.

As for `O=C1N[C@@H](COCc2ccccc2)Cn2c(-c3ccc(CO)cc3)nc3cccc1c32` [Example 238a, (R)-8-Benzyloxymethyl-1-(4-hydroxymethyl-phenyl)-8,9-dihydro-7H-2,7,9a-triaza-benzo[cd]azulen-6-one], the Ki was found to be 30.7 nM.

`CN(CCc1ccccc1)Cc1ccc(-c2nc3cccc4c3n2C[C@H](CO)NC4=O)cc1` [Example 239, (R)-8-Hydroxymethyl-1-{4-[(methyl-phenethyl-amino)-methyl]-phenyl}-8,9-dihydro-7H-2,7,9a-triaza-benzo[cd]azulen-6-one]: the Ki was 7.8 nM.

Consider `CNCc1ccc(-c2nc3cccc4c3n2C[C@H](CO)NC4=O)cc1` [Example 240, (R)-8-Hydroxymethyl-1-(4-methylaminomethyl-phenyl)-8,9-dihydro-7H-2,7,9a-triaza-benzo[cd]azulen-6-one], for which the Ki was 4.2 nM and 4.5 nM.

On to `O=C1N[C@@H](CO)Cn2c(-c3ccc(CN4CCCC4)cc3)nc3cccc1c32` [Example 241, (R)-8-Hydroxymethyl-1-(4-pyrrolidin-1-ylmethyl-phenyl)-8,9-dihydro-7H-2,7,9a-triaza-benzo[cd]azulen-6-one], for which the inhibitory constant (Ki) amounted to 6.8 nM.

As for `N#CCc1ccc(-c2nc3cccc4c3n2CCNC4=O)cc1` [Example 242, [4-(6-oxo-6,7,8,9-Tetrahydro-2,7,9a-triaza-benzo[cd]azulen-1-yl)-phenyl]-acetonitrile], the Ki came out at 3.4 nM.
